US7586008B2, “Propofol analogs, process for their preparation, and methods of use” (Abraxis Bioscience, Inc., priority 2003, dated 2009)

Legend:
[1] = tested on: rats; assay: In vivo hypnotic/anesthetic activity, time to recovery of righting reflex; set-up: species or system rat; conditions: for Anesthesia Activity (Time to awakening, min): rats, tail vein injection in DMSO, 28 μmol/kg (5 mg/kg for propofol)
Description: (§1) To determine the binding constant (KD) of propofol and its analogs for GABAA Cl channel, binding was determined as in Example 25 in presence of increasing concentration of propofol and the KD determined graphically using the Hill plots. In vivo hypnotic activity was determined as follows. Drugs solubilized in DMSO were administered to rats by tail vein injection (N=5 rats per group). A dose level of 28 μmol/kg (5 mg/kg for propofol) was used to compensate for differences in molecular weight of the analogs. Anesthetic activity in vivo was determined as time to recovery of righting reflex following administration of the compounds.
(§2) Dose escalation experiment was performed in rat in order to compare the toxicity and the pharmacodynamic of CT8 against propofol. Drugs solubilized in DMSO were administered to rats (5 rats per group). Anesthetic activity in vivo was determined as time to recovery of righting reflex. Mortality was also monitored and the LD50 curves for propofol and CT8 constructed. In order to adjust for the differences in molecular weight between the two compounds, μmol/kg dose was used.

[2] = tested on: rats; assay: Dose escalation toxicity, mortality and LD curves; conditions: rat
Description: as §2

[3] = biological target: GABAA Cl channel; assay: Competitive binding assay, GABAA Cl channel (3H-TBOB), bovine hippocampus; conditions: increasing concentration, Hill plots; for IC50: read-out: GABAA CI Channel Binding (IC50)
Description: The propofol binding site on GABAA was defined using a series of competitive binding assays. Frozen bovine hippocampus was thawed and homogenized in 40 volumes of ice-cold 0.32 M sucrose. The suspension was centrifuged at 1000×g for 10 minutes at 4° C. The pellet was washed twice in assay buffer and reacted with radioactive ligand in presence or absence of propofol at 10−4 M final concentration. The amount of radioactivity remained on the Whatman filter following filtration of the reaction mix and two washes with assay buffer was determined using a liquid scintillation counter. Inhibition of radioactive ligand binding by propofol represents the competitive binding of propofol to the same site as the radioactive ligand. GABAA agonist site, GABAA α-1 site, GABAA α-5 site, GABAA α-6 site, and GABAA Cl channel were assayed using ^3H-GABA, ^3H-Flunitrazepam, ^3H-RY80, ^3H-Ro 15-4513, and ^3H-TBOB.
as §1

[4] = rat
[5] = in vivo; conditions: male, Sprague-Dawley, rat, whole blood, iv
[6] = single i.v. bolus in DMSO, propofol 5 mg/kg, CT8 10 mg/kg

For `CC(C)c1cc(C(=O)c2ccc(F)cc2)cc(C(C)C)c1O` [CT7, (4-fluorophenyl)-(4-hydroxy-3,5-diisopropylphenyl)methanone], the “Anesthesia Activity (Time to awakening, min)” value (“Anesthesia Activity” for short) [1] was 34.2 ± 1.2, N = 2 min.

For `CC(C)c1cc(C(=O)c2ccc(C(F)(F)F)cc2)cc(C(C)C)c1O` [CT8, (4-(trifluoromethyl)phenyl)-(4-hydroxy-3,5-diisopropylphenyl)methanone], the “Time to Awakening (h) [mean ± SD, (N)]” value ([1]; rat, dose 1.43 μmol/kg) was 0.000 ± 0.000, (5) h, the “Time to Awakening (h) [mean ± SD, (N)]” value ([1]; rat, dose 2.86 μmol/kg) was 0.000 ± 0.000, (5) h and the “Time to Awakening (h) [mean ± SD, (N)]” value ([1]; rat, dose 14.28 μmol/kg) was 0.748 ± 0.094, (5) h. The “Time to Awakening (h) [mean ± SD, (N)]” value ([1]; rat, dose 28.10 μmol/kg) was 1.543 ± 0.085, (4) h, the “Time to Awakening (h) [mean ± SD, (N)]” value ([1]; rat, dose 28.56 μmol/kg) was 1.728 ± 0.154 (5) h and the “Time to Awakening (h) [mean ± SD, (N)]” value ([1]; rat, dose 57.12 μmol/kg) was 3.553 ± 0.166, (3) h. For the same compound, the “time rats were asleep at LD10” value ([1]; rat, dose = LD10) was 1.73 h, the “Mortality (%)” value ([2]; dose 1.427959 μmol/kg) was 0% and the “Mortality (%)” value ([2]; dose 2.855919 μmol/kg) was 0%. The “Mortality (%)” value ([2]; dose 14.2796 μmol/kg) was 0%, the “Mortality (%)” value ([2]; dose 28.55919 μmol/kg) was 10% and the “Mortality (%)” value ([2]; dose 57.11838 μmol/kg) was 40%. The “Mortality (%)” value ([2]; dose 114.2368 μmol/kg) was 100%, the “Mortality (%)” value ([2]; dose 228.4735 μmol/kg) was 100% and the “calculated LD10” value ([2]; drugs in DMSO) was 29 µmol/kg. The IC50 [3] was 570 nM, the “AUC, fold higher than that of propofol” value ([4]; i.v. bolus, ratio to propofol) was 317 × and the “CL, fold slower than propofol” value ([4]; i.v. bolus, ratio to propofol) was 146 ×. The “V1, fold smaller than that of propofol” value ([4]; i.v. bolus, ratio to propofol) was 375 ×, the “V2, fold smaller than that of propofol” value ([4]; i.v. bolus, ratio to propofol) was 11 × and the “Vss, fold smaller than that of propofol” value ([4]; i.v. bolus, ratio to propofol) was 14 ×. For the same compound, the “V1” value [4, 6] was 0.04 L/kg, the “V2” value [4, 6] was 5.2 L/kg and the Vd [5] was 5.3 L/kg. For the same compound, the clearance [5] was 1.33 mL/min/kg.

For `CC(C)c1cc(C(=O)c2ccc([N+](=O)[O-])cc2)cc(C(C)C)c1O` [CY61, (4-hydroxy-3,5-diisopropylphenyl)-(4-nitrophenyl)methanone], the “Anesthesia Activity” value [1] was 57.2 ± 0.7, N = 5 min and the IC50 [3] was 500 nM.

For `CC(C)c1cc(C(=O)c2ccc(C(F)(F)F)c(F)c2)cc(C(C)C)c1O` [CY93, (3-fluoro-4-(trifluoromethyl)phenyl)-(4-hydroxy-3,5-diisopropylphenyl)methanone], the “Anesthesia Activity” value [1] was 52.4 ± 37.7, N = 3 min and the IC50 [3] was 1270 nM.

In the case of `CC(C)c1cc(C(=O)c2cccc(C(F)(F)F)c2)cc(C(C)C)c1O` [CY96, (3-(trifluoromethyl)phenyl)-(4-hydroxy-3,5-diisopropylphenyl)methanone], the “Anesthesia Activity” value [1] is reported as 5.5 ± 2.4, N = 5 min and the IC50 [3] is reported as 3910 nM.

For `CC(C)c1cc(C(=O)c2cc(F)cc(C(F)(F)F)c2)cc(C(C)C)c1O` [CY97, (3-fluoro-5-(trifluoromethyl)phenyl)-(4-hydroxy-3,5-diisopropylphenyl)methanone], the “Anesthesia Activity” value [1] was 1.9 ± 1.0, N = 5 min and the IC50 [3] was 4670 nM.

In the case of `CC(C)c1cc(C(=O)c2ccc3ccccc3c2)cc(C(C)C)c1O` [CY99, (4-hydroxy-3,5-diisopropylphenyl)-(naphthalen-2-yl)methanone], the “Anesthesia Activity” value [1] is reported as 5.5 ± 3.4, N = 5 min and the “GABAA CI Channel Binding (IC50, μM)” value [3] is reported as “No activity”.

For `CC(C)c1cc(C(=O)c2cc(C(F)(F)F)cc(C(F)(F)F)c2)cc(C(C)C)c1O` [CY104, (3,5-bis(trifluoromethyl)phenyl)-(4-hydroxy-3,5-diisopropylphenyl)methanone], the “Anesthesia Activity” value [1] was 6.4 ± 2.8, N = 4 min and the IC50 [3] was 21300 nM.

For `CC(C)c1cc(C(=O)c2ccc(C(C)(C)C)cc2)cc(C(C)C)c1O` [CY120, (4-tert-butylphenyl)-(4-hydroxy-3,5-diisopropylphenyl)methanone], the “Anesthesia Activity” value [1] was 15.5 ± 9.2, N = 2 min.

For `CC(C)Cc1ccc(C(=O)c2cc(C(C)C)c(O)c(C(C)C)c2)cc1` [CY122, (4-hydroxy-3,5-diisopropylphenyl)-(4-isobutylphenyl)methanone], the “Anesthesia Activity” value [1] was 7.6 ± 1.8, N = 5 min.

For `CON=C(c1ccc(C(F)(F)F)cc1)c1cc(C(C)C)c(O)c(C(C)C)c1` [CY127, 4-((4-(trifluoromethyl)phenyl)-(methoxyimino)methyl)-2,6-diisopropylphenol], the “Anesthesia Activity” value [1] was 8.8 ± 5.8, N = 5 min.

With `CC(C)c1cc(Cc2ccc(C(F)(F)F)cc2)cc(C(C)C)c1O` [CY130, 4-(4-(trifluoromethyl)benzyl)-2,6-diisopropylphenol] the “Anesthesia Activity” value [1] was 8.2 ± 3.0, N = 5 min.

With `CC(C)c1cc(C(O)c2ccc(C(F)(F)F)cc2)cc(C(C)C)c1O` (stereo not drawn) [CY135, 4-((4-(trifluoromethyl)phenyl)-(hydroxy)methyl)-2,6-diisopropylphenol] the “Anesthesia Activity” value [1] was 15.0 ± 11.4, N = 5 min.

In the case of `CC(C)c1cc(C(=O)c2ccc(I)cc2)cc(C(C)C)c1O` [CY155, (4-hydroxy-3,5-diisopropylphenyl)-(4-iodophenyl)methanone], the IC50 [3] is reported as 570 nM.

In the case of `COc1ccc(C(=O)c2cc(C(C)C)c(O)c(C(C)C)c2)cc1` [CY157, (4-hydroxy-3,5-diisopropylphenyl)-(4-methoxyphenyl)methanone], the “Anesthesia Activity” value [1] is reported as 0.0 + 0.0, N = 5 min.

With `CC(C)c1cc(C(=O)c2ccc(C#N)cc2)cc(C(C)C)c1O` [CY175, (4-cyanophenyl)-(4-hydroxy-3,5-diisopropylphenyl)methanone] the “Anesthesia Activity” value [1] was 43.4 ± 23.5, N = 2 min.

In the case of `CC(C)c1cc(C(=O)c2ccc(C(F)(F)F)nc2)cc(C(C)C)c1O` [CY176, (6-(trifluoromethyl)pyridin-3-yl)-(4-hydroxy-3,5-diisopropylphenyl)methanone], the “Anesthesia Activity” value [1] is reported as 14.9 + 21.1, N = 2 min.

For `CC(C)c1cc(C(=O)c2ccc(S(C)(=O)=O)cc2)cc(C(C)C)c1O` [CY177], the “Anesthesia Activity” value [1] was 4.6 ± 1.5, N = 5 min.

For `CC(C)c1cc(C(=O)c2ccc(Br)cc2)cc(C(C)C)c1O` [CY178, (4-bromophenyl)-(4-hydroxy-3,5-diisopropylphenyl)methanone], the “Anesthesia Activity” value [1] was 66.6 ± 17.9, N = 5 min.

With `CCCc1ccc(C(=O)c2cc(C(C)C)c(O)c(C(C)C)c2)cc1` [CY181, (4-hydroxy-3,5-diisopropylphenyl)-(4-propylphenyl)methanone] the “Anesthesia Activity” value [1] was 9.0 + 20.1, N = 5 min.

With `CC(C)c1cc(C(=O)c2ccc(Cl)cc2)cc(C(C)C)c1O` [CY182, (4-chlorophenyl)-(4-hydroxy-3,5-diisopropylphenyl)methanone] the “Anesthesia Activity” value [1] was 67.7 ± 5.1, N = 3 min.
